ChEMBL document CHEMBL1201862, “PubChem BioAssay data set” (2004)
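In this assay, cells in 96-well plates receive the compound at five concentrations for 48 hours. Endpoints are linearly interpolated between the surrounding concentrations. At the GI50, growth is halved.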 Activity calls are given as the source filed them. Rule as the data show it: active = GI50 up to about 1.1 µM and inactive = higher.

Tests used:
Test in all cases: DTP human tumour cell line panel, 48 h
CAKI-1 = tested on: CAKI-1
COLO 205 = tested on: COLO 205
DU-145 = tested on: DU-145
HCT-116 = tested on: HCT-116
HL-60 = tested on: HL-60
HOP-62 = tested on: HOP-62
HOP-92 = tested on: HOP-92
LOX IMVI = tested on: LOX IMVI
M14 = tested on: M14
MDA-MB-231 = tested on: MDA-MB-231
MDA-MB-435 = tested on: MDA-MB-435
MOLT-4 = tested on: MOLT-4
NCI-H460 = tested on: NCI-H460
OVCAR-5 = tested on: OVCAR-5
RXF 393 = tested on: RXF 393
SF-268 = tested on: SF-268
SF-539 = tested on: SF-539
SN12C = tested on: SN12C
SR = tested on: SR
U-251 = tested on: U-251

Compound | GI50 (CAKI-1) | GI50 (COLO 205) | GI50 (DU-145) | GI50 (HCT-116) | GI50 (HL-60) | GI50 (HOP-62) | GI50 (HOP-92) | GI50 (LOX IMVI) | GI50 (M14) | GI50 (MDA-MB-231) | GI50 (MDA-MB-435) | GI50 (MOLT-4) | GI50 (NCI-H460) | GI50 (OVCAR-5) | GI50 (RXF 393) | GI50 (SF-268) | GI50 (SF-539) | GI50 (SN12C) | GI50 (SR) | GI50 (U-251)
CCOC1OC(=O)c2cc3ccc4c(c3c(-c3ccc5c(c3)OCO5)c21)OCO4 (stereo not given) | 4.48 µM (inactive) | 1.55 µM (inactive) | 70.5 µM (inactive) | 2.43 µM (inactive) | 9.91 µM (inactive) | 4.63 µM (inactive) | 96.8 µM (inactive) | 3.79 µM (inactive) | 3.4 µM (inactive) | 17.4 µM (inactive) | 3.04 µM (inactive) | 6.05 µM (inactive) | 3.56 µM (inactive) | 14.5 µM (inactive) | 5.79 µM (inactive) | 5.46 µM (inactive) | 1.42 µM (inactive) | 10.9 µM (inactive) | 2.04 µM (inactive) | 5.68 µM (inactive)
CC1=NN(C(=O)CC(=O)Nc2ccc(C)cc2)C(=O)C1/N=N\c1ccc(S(=O)(=O)c2ccc(/N=N/C3C(=O)N(C(=O)CC(=O)Nc4ccc(C)cc4)N=C3C)cc2)cc1 (stereo not given) | > 100 µM (inactive) | > 100 µM (inactive) | > 100 µM (inactive) | 43.4 µM (inactive) | 16.4 µM (inactive) | > 100 µM (inactive) | > 100 µM (inactive) | 16.2 µM (inactive) | 38 µM (inactive) | 35.6 µM (inactive) | 84.3 µM (inactive) | 42.5 µM (inactive) | 38.5 µM (inactive) | > 100 µM (inactive) | > 100 µM (inactive) | > 100 µM (inactive) | > 100 µM (inactive) | 50.1 µM (inactive) | 27.5 µM (inactive) | 52.1 µM (inactive)
CN(C)c1ccc(/C=c2\c3cc([N+](=O)[O-])ccc3n3c2cc(-c2ccccc2)[n+]3C)cc1 | 7.66 µM (inactive) | 0.297 µM (active) | 1.95 µM (inactive) | 0.885 µM (active) | 0.292 µM (active) | 2.04 µM (inactive) | 1.18 µM (inactive) | 1.57 µM (inactive) | 1 µM (active) | 1.73 µM (inactive) | 0.531 µM (active) | 1.75 µM (inactive) | 3.13 µM (inactive) | 3.63 µM (inactive) | 1.06 µM (active) | 0.923 µM (active) | 0.822 µM (active) | 0.454 µM (active) | 0.29 µM (active) | 0.327 µM (active)
CN(C)c1ccc(/C=c2/c3ccccc3n3c2cc(NC(=O)NCCC[N+](C)(C)C)[n+]3C)cc1 | > 100 µM (inactive) | > 100 µM (inactive) | > 100 µM (inactive) | > 100 µM (inactive) | 42.9 µM (inactive) | > 100 µM (inactive) | 30.6 µM (inactive) | 61.2 µM (inactive) | 72.8 µM (inactive) | > 100 µM (inactive) | > 100 µM (inactive) | > 100 µM (inactive) | > 100 µM (inactive) | > 100 µM (inactive) | > 100 µM (inactive) | > 100 µM (inactive) | 53.1 µM (inactive) | 0.432 µM (active) | 75.9 µM (inactive) | 50 µM (inactive)
COc1ccc(Cn2c3c(cc(OC(C)=O)c2=O)Cc2ccccc2-3)cc1 | 10.7 µM (inactive) | 20.6 µM (inactive) | 12.2 µM (inactive) | 6.52 µM (inactive) | 5.64 µM (inactive) | 14.9 µM (inactive) | 9.98 µM (inactive) | 6.12 µM (inactive) | 6.24 µM (inactive) | 13.2 µM (inactive) | 11 µM (inactive) | 2.88 µM (inactive) | 3.97 µM (inactive) | 18.7 µM (inactive) | 8.36 µM (inactive) | 7.82 µM (inactive) | 8.02 µM (inactive) | 7.55 µM (inactive) | 2.14 µM (inactive) | 8.65 µM (inactive)
